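GI50: concentration for 50% inhibition of growth. TGI denotes the concentration required for complete inhibition of growth.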
Key:
Assay in all cases: NCI-60 cell line screen, 384-well format
SW-620 colon = system: SW-620 colon
KM12 colon = system: KM12 colon
HCT-15 colon = system: HCT-15 colon
NCI-H322M lung = system: NCI-H322M lung
OVCAR-4 ovarian = system: OVCAR-4 ovarian
MCF7 breast = system: MCF7 breast
A549 NSCLC = system: A549 NSCLC
DU-145 prostate = system: DU-145 prostate
SF-268 CNS = system: SF-268 CNS
ACHN renal = system: ACHN renal
NCI-H522 lung = system: NCI-H522 lung
HOP-62 NSCLC = system: HOP-62 NSCLC
MALME-3M melanoma = system: MALME-3M melanoma
SK-MEL-2 melanoma = system: SK-MEL-2 melanoma
K-562 leukemia = system: K-562 leukemia
MDA-MB-231 breast = system: MDA-MB-231 breast
SK-MEL-28 melanoma = system: SK-MEL-28 melanoma
SF-295 CNS = system: SF-295 CNS
MDA-MB-468 breast = system: MDA-MB-468 breast
SN12C renal = system: SN12C renal
SNB-75 CNS = system: SNB-75 CNS
NCI-H226 lung = system: NCI-H226 lung
HL-60(TB) leukemia = system: HL-60(TB) leukemia
EKVX NSCLC = system: EKVX NSCLC
HCT-116 colon = system: HCT-116 colon
NCI-H460 NSCLC = system: NCI-H460 NSCLC
SK-OV-3 ovarian = system: SK-OV-3 ovarian
SF-539 CNS = system: SF-539 CNS

Structure (SMILES): CCc1cc2c(c(OCC(F)(F)F)c(C(=O)NC3CCN(C(=O)CO)CC3)n2C)c(=O)n1CC(=O)c1ccccc1
- GI50 (SW-620 colon): 57 µM
- TGI (SW-620 colon): > 100 µM
- GI50 (KM12 colon): 42.4 µM
- TGI (KM12 colon): > 100 µM
- GI50 (HCT-15 colon): 61.9 µM
- TGI (HCT-15 colon): > 100 µM
- GI50 (NCI-H322M lung): 72.6 µM
- TGI (NCI-H322M lung): > 100 µM
- GI50 (OVCAR-4 ovarian): 37.1 µM
- TGI (OVCAR-4 ovarian): > 100 µM
- GI50 (MCF7 breast): 9.23 µM
- TGI (MCF7 breast): > 100 µM
- GI50 (A549 NSCLC): 46.8 µM
- TGI (A549 NSCLC): > 100 µM
- GI50 (DU-145 prostate): 82.5 µM
- TGI (DU-145 prostate): > 100 µM
- GI50 (SF-268 CNS): 68.8 µM
- TGI (SF-268 CNS): > 100 µM
- GI50 (ACHN renal): 31.6 µM
- TGI (ACHN renal): > 100 µM
- GI50 (NCI-H522 lung): 69.8 µM
- TGI (NCI-H522 lung): > 100 µM
- GI50 (HOP-62 NSCLC): 28.2 µM
- TGI (HOP-62 NSCLC): > 100 µM
- GI50 (MALME-3M melanoma): 73.9 µM
- TGI (MALME-3M melanoma): > 100 µM
- GI50 (SK-MEL-2 melanoma): 30.1 µM
- TGI (SK-MEL-2 melanoma): > 100 µM
- GI50 (K-562 leukemia): 33.6 µM
- TGI (K-562 leukemia): > 100 µM
- GI50 (MDA-MB-231 breast): 37.7 µM
- TGI (MDA-MB-231 breast): > 100 µM
- GI50 (SK-MEL-28 melanoma): 38.9 µM
- TGI (SK-MEL-28 melanoma): > 100 µM
- GI50 (SF-295 CNS): 24.9 µM
- TGI (SF-295 CNS): 98.7 µM
- GI50 (MDA-MB-468 breast): 20.6 µM
- TGI (MDA-MB-468 breast): 79.2 µM
- GI50 (SN12C renal): > 100 µM
- TGI (SN12C renal): > 100 µM
- GI50 (SNB-75 CNS): 54.9 µM
- TGI (SNB-75 CNS): > 100 µM
- GI50 (NCI-H226 lung): 22.4 µM
- TGI (NCI-H226 lung): > 100 µM
- GI50 (HL-60(TB) leukemia): 25.3 µM
- TGI (HL-60(TB) leukemia): 40.7 µM
- GI50 (EKVX NSCLC): 40.3 µM
- TGI (EKVX NSCLC): > 100 µM
- GI50 (HCT-116 colon): 35.6 µM
- TGI (HCT-116 colon): > 100 µM
- GI50 (NCI-H460 NSCLC): 27.5 µM
- TGI (NCI-H460 NSCLC): > 100 µM
- GI50 (SK-OV-3 ovarian): 45.8 µM
- TGI (SK-OV-3 ovarian): > 100 µM
- GI50 (SF-539 CNS): 37.8 µM
